Laboratory results from article PMC3026633 (Neuropharmacology, 2010).

Legend:
α1E122Cβ2γ2 GABAR = α1E122Cβ2γ2 GABAR (Rattus norvegicus, UniProt P18508+P62813+P63138, E149C); assay: Two-electrode voltage clamp of GABA-gated current in Xenopus oocytes; type: cell-based
α1R131Cβ2γ2 GABAR = α1R131Cβ2γ2 GABAR (Rattus norvegicus, UniProt P18508+P62813+P63138, R158C); assay: as above; type: cell-based; conditions: 1μM flumazenil
α1β2P206Cγ2 GABAR = α1β2P206Cγ2 GABAR (Rattus norvegicus, UniProt P18508+P62813+P63138, P230C); assay: as above; type: cell-based; conditions: 100nM DMCM, saturating
Sequence of α1β2P206Cγ2 GABAR (P62813 28-455): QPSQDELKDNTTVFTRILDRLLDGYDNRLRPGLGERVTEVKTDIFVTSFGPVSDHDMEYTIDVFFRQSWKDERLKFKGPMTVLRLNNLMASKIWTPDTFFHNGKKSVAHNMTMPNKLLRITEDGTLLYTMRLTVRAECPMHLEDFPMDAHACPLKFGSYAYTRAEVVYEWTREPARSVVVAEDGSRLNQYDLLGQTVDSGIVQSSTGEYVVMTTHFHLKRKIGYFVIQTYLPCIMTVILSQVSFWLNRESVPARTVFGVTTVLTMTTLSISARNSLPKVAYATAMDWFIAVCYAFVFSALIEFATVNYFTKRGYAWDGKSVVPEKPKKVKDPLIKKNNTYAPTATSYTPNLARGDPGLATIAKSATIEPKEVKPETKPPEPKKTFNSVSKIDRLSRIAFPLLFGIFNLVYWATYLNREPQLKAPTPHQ
Sequence of α1β2P206Cγ2 GABAR (P63138 25-474 P230C limits assumed): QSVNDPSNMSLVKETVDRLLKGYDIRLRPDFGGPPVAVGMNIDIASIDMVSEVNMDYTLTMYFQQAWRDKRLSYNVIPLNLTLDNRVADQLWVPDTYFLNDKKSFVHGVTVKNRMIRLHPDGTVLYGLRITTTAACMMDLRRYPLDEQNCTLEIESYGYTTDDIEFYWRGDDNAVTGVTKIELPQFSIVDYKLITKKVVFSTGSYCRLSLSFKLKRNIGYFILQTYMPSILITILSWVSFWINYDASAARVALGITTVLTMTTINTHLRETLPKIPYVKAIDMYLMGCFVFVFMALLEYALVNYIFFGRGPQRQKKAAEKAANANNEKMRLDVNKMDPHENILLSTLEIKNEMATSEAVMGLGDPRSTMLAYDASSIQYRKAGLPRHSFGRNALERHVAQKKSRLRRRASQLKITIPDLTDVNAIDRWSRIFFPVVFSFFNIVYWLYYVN
Sequence of α1β2P206Cγ2 GABAR (P18508 39-466): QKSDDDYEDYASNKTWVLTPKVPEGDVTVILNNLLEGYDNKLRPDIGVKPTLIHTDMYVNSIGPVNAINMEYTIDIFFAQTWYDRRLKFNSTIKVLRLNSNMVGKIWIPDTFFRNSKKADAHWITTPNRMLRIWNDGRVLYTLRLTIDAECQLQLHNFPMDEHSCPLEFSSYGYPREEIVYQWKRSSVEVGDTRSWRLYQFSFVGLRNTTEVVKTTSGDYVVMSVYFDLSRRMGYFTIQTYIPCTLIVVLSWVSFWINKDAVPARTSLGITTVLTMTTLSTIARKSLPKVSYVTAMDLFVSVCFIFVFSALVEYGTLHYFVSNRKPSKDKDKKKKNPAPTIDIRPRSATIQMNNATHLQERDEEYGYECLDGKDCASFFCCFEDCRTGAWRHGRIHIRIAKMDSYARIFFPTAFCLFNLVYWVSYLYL

wild-type α1β2γ2 GABAR = wild-type α1β2γ2 GABAR (Rattus norvegicus, UniProt P18508+P62813+P63138); conditions: WT GABARs; DMCM; ref Boileau and Czajkowski, 1999; Hanson and Czajkowski, 2008; cited from earlier work
Sequence of wild-type α1β2γ2 GABAR (P62813 28-455): as the sequence (P62813 28-455) above
Sequence of wild-type α1β2γ2 GABAR (P63138 25-474 limits assumed): as the sequence (P63138 25-474 P230C limits assumed) above, with C206P counted along it
Sequence of wild-type α1β2γ2 GABAR (P18508 39-466): as the sequence (P18508 39-466) above

Sequence of α1E122Cβ2γ2 GABAR (P62813 28-455 E149C): as the sequence (P62813 28-455) above, with E122C counted along it
Sequence of α1E122Cβ2γ2 GABAR (P63138 25-474 limits assumed): as the sequence (P63138 25-474 P230C limits assumed) above, with C206P counted along it
Sequence of α1E122Cβ2γ2 GABAR (P18508 39-466): as the sequence (P18508 39-466) above
Sequence of α1R131Cβ2γ2 GABAR (P62813 28-455 R158C): as the sequence (P62813 28-455) above, with R131C counted along it
Sequence of α1R131Cβ2γ2 GABAR (P63138 25-474 limits assumed): as the sequence (P63138 25-474 P230C limits assumed) above, with C206P counted along it
Sequence of α1R131Cβ2γ2 GABAR (P18508 39-466): as the sequence (P18508 39-466) above

SMILES | effect on GABA-gated current (α1E122Cβ2γ2 GABAR; 1μM flumazenil) | effect on GABA-gated current (α1R131Cβ2γ2 GABAR) | inhibition of IGABA (IGABA+DRUG/IGABA) (α1β2P206Cγ2 GABAR) [fold] | inhibition of IGABA (IGABA+DRUG/IGABA) (α1E122Cβ2γ2 GABAR; 100nM DMCM, saturating) [fold] | maximal attenuation of GABA current (IGABA+DRUG/IGABA) (wild-type α1β2γ2 GABAR) [fold]
CCOC(=O)c1ncn2c1CN(C)C(=O)c1cc(F)ccc1-2 [flumazenil] | had no effect | had no effect |  |  | 
CCc1c(C(=O)OC)ncc2[nH]c3cc(OC)c(OC)cc3c12 [DMCM, 3-carbomethoxy-4-ethyl-6,7-dimethoxy-β-carboline] |  |  | 0.45 | 0.45 | 0.62
